US8673586B2, “Compounds that interact with kinases” (Alchemia Limited, priority 2002, dated 2014)
Like-named read-outs stand apart in the source and are kept apart here.

Experiments:
S6K1 = S6K1 (Homo sapiens, UniProt P23443); conditions: cited from earlier work
MSK-1 = MSK-1 (Homo sapiens, UniProt O75582); conditions: cited from earlier work
PRK2 = PRK2 (Homo sapiens, UniProt Q16513); conditions: inhibitor concentration 20 μM; cited from earlier work
SAPK2a = SAPK2a (Homo sapiens, UniProt Q16539); conditions: inhibitor concentration 10 μM; cited from earlier work
SAPK2a, sequence (Q16539 whole entry, species assumed): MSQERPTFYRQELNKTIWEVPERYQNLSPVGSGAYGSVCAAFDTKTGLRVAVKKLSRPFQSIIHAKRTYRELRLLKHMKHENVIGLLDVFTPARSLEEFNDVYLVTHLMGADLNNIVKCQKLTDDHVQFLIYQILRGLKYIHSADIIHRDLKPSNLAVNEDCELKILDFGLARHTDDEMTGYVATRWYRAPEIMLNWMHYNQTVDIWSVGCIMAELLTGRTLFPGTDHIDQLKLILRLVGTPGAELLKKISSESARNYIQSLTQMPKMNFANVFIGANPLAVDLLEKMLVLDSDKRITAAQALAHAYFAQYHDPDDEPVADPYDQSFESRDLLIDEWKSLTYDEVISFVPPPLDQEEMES

MKK1 = MKK1 (Homo sapiens, UniProt Q02750); conditions: inhibitor concentration 10 μM; cited from earlier work
CDK2 = CDK2 (Homo sapiens, UniProt P24941); conditions: inhibitor concentration 10 μM; cited from earlier work
CK1 = conditions: inhibitor concentration 10 μM; cited from earlier work
EGF-R = EGF-R (Homo sapiens, UniProt P00533); assay: EGF-R kinase assay, 33P-ATP incorporation, residual activity; assay type: biochemical; conditions: tested at 25 micromolar
Protocol: (§1) Compounds were tested in vitro as follows.
(§2) Recombinant protein kinases, which were expressed as fusion proteins in SF9 insect cells or E. coli, were used for all in vitro assays. The purity and identity of each kinase was checked by SDS-PAGE/silver staining and by western blot analysis with specific antibodies.
(§3) All kinase assays except for p38a (see below) were performed in 96-well micro-titre plates. The assay components included assay buffer, ATP, test compound, enzyme and substrate.
(§4) The assay for all enzymes (except for the PKC see below, contained 60 mM HEPES-NaOH, pH 7.5, 3 mM MgCl2, 3 mM MnCl2, 3 μM Na-orthovanadate, 1 mM […], 0.1 μM [γ-^33P]-ATP (approx. 5×10^5 cpm per well).
(§5) The reaction cocktails were incubated at 30° C. for 80 minutes. The reaction was stopped with 50 μl of 2% (v/v) H3PO4, plates were aspirated and washed twice with 200 μl of H2O or 0.9% (w/v) NaCl. Incorporation of ^33Pi was determined with a microplate scintillation counter.
(§6) All data is presented as residual activity, which is the activity of the enzyme in the presence of the stipulated concentration of inhibitor or compound. 100% activity is the maximum activity of the enzyme in the absence of any inhibitor or compound.
(§7) In all experiments the Z′ value was calculated according to Zhang et al to (J-H Zhang, T. D. Y Chung, K. R. Oldenburg (1999) Journal of Biomolecular Screening 4:67-73) using the standard deviations and mean values of the positive and negative controls. Z′=1−(3*Stdevneg+3*Stdevpos)/(Meanpos−Meanneg)
(§8) Only data where the Z′ value was >0.5 was used.

ABL = ABL (Homo sapiens, UniProt P00519); assay: ABL kinase assay, 33P-ATP incorporation, residual activity; assay type: biochemical; conditions: tested at 25 micromolar
ABL, sequence (P00519 whole entry, species assumed): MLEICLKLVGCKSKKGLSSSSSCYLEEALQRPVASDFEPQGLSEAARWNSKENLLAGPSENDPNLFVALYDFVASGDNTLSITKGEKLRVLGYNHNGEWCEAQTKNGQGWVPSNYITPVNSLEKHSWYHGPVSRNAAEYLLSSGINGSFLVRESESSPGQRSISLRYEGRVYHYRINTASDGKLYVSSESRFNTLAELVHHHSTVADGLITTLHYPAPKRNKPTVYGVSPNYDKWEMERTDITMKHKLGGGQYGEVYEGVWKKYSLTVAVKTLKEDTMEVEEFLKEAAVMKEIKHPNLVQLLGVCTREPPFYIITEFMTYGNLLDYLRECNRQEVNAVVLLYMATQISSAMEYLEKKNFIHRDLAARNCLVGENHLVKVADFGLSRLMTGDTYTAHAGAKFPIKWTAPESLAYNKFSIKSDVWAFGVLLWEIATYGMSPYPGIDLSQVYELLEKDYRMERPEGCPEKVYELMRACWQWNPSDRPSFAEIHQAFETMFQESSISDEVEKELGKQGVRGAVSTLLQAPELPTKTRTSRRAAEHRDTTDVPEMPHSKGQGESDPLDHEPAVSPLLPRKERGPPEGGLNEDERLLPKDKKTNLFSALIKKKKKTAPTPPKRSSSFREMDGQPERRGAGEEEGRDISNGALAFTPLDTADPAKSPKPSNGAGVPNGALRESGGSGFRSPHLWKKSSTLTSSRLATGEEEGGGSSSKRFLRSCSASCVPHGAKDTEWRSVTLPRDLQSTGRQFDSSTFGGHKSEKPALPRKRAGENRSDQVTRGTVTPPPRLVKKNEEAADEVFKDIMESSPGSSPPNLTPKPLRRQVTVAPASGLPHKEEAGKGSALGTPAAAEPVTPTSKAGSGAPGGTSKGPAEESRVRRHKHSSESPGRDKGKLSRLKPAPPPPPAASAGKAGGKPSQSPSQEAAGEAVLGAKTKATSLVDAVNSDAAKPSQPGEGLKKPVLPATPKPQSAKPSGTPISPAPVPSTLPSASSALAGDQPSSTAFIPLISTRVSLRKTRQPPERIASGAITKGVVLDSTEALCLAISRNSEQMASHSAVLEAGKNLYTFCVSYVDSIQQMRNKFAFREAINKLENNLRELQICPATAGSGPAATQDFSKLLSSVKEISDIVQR
Protocol: as §1, §2, §3, §4, §5, §6, §7, §8

CDK2/CycA = CDK2/CycA (Homo sapiens, UniProt P24941); assay: CDK2/CycA kinase assay, 33P-ATP incorporation, residual activity; assay type: biochemical; conditions: tested at 25 micromolar
Protocol: as §1, §2, §3, §4, §5, §6, §7, §8

PDGF-Ralpha = target: T1, PDGF-Ralpha (Homo sapiens, UniProt P16234); assay: PDGF-Ralpha kinase assay, 33P-ATP incorporation, residual activity; assay type: biochemical; conditions: tested at 25 micromolar
T1 construct: made in house
Protocol: as §1, §2, §3, §4, §5, §6, §7, §8

MET = target: T2, MET (Homo sapiens, UniProt P08581); assay: MET kinase assay, 33P-ATP incorporation, residual activity; assay type: biochemical; parameters: key: % residual kinase activity (100% = no inhibitor); conditions: tested at 25 micromolar
T2 construct: made in house
Protocol: as §1, §2, §3, §4, §5, §6, §7, §8

PKC-beta1 = PKC-beta1 (Homo sapiens, UniProt P05771); assay: PKC-beta1 kinase assay, 33P-ATP incorporation, residual activity; assay type: biochemical; conditions: tested at 25 micromolar
PKC-beta1, sequence (P05771 whole entry): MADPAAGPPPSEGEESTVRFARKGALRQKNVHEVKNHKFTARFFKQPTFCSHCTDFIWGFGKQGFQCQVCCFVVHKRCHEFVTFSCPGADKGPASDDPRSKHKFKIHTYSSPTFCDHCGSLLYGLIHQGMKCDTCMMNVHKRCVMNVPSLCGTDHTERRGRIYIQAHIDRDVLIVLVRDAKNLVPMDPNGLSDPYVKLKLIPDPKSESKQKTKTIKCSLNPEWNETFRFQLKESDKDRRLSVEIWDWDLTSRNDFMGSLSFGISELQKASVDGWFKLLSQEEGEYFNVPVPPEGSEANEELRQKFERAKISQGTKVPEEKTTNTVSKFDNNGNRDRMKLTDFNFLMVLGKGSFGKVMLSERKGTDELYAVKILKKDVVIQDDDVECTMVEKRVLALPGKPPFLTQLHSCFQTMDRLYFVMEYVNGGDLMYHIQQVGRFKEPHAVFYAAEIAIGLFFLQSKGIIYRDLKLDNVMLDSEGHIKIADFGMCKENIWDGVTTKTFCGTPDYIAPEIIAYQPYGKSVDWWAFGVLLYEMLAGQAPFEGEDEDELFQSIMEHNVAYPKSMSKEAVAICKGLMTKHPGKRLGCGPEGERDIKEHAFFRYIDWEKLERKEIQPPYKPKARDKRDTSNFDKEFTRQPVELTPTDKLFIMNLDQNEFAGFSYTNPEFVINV
Protocol: as §1, §2, §3
The assay for the PKCs contained 60 mM HEPES-NaOH, pH 7.5, 1 mM EDTA, 1.25 mM EGTA, 5 mM MgCl2, 1.32 mM CaCl2, 5 μg/ml Phosphatidylserine, 1 μg/ml 1.2 Dioleyl-glycerol, 1.2 mM DTT, 50 μg/ml PEG20000, 0.1 μM [γ-^33P]-ATP (approx. 5×10^5 cpm per well).
as §5, §6, §7, §8

KIT = target: T3, KIT (Homo sapiens, UniProt P10721); assay: KIT kinase assay, 33P-ATP incorporation, residual activity; assay type: biochemical
T3 construct: made in house
T3 sequence (P10721 26-976, species assumed): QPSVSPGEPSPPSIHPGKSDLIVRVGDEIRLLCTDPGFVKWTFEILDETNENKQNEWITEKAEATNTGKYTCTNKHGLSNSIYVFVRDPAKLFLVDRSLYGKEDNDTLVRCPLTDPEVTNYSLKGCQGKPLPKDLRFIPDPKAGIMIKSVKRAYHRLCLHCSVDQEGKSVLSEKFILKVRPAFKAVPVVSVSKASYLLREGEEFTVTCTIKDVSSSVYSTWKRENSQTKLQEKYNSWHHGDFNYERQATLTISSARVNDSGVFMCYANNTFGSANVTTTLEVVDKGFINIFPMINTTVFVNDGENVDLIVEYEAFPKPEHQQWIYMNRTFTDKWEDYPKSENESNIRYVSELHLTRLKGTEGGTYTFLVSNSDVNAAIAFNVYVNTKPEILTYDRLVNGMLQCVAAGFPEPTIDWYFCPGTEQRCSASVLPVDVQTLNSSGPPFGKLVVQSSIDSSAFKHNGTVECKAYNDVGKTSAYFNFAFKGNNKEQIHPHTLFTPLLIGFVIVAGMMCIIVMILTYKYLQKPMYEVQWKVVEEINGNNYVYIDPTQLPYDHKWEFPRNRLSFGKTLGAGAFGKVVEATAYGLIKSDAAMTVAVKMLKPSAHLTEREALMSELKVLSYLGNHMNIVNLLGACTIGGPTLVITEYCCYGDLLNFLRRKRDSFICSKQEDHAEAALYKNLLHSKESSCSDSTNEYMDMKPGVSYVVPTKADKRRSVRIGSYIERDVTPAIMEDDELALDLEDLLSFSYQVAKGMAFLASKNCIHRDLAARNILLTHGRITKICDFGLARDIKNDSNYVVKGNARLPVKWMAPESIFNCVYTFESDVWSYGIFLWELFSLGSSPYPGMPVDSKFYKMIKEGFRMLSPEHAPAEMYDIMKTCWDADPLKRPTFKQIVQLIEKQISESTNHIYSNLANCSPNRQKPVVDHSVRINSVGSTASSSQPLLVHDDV
Protocol: as §1, §2, §3, §4, §5, §6, §7, §8

TIE2 = target: T4, TIE2 (Homo sapiens, UniProt Q02763); assay: TIE2 kinase assay, 33P-ATP incorporation, residual activity; assay type: biochemical
T4 construct: made in house
Protocol: as §1, §2, §3, §4, §5, §6, §7, §8

VEGF-R2 = target: T5, VEGF-R2 (Homo sapiens, UniProt P35968); assay: VEGF-R2 kinase assay, 33P-ATP incorporation, residual activity; assay type: biochemical; parameters: key: % residual kinase activity (100% = no inhibitor)
T5 construct: made in house
T5 sequence (P35968 20-1356): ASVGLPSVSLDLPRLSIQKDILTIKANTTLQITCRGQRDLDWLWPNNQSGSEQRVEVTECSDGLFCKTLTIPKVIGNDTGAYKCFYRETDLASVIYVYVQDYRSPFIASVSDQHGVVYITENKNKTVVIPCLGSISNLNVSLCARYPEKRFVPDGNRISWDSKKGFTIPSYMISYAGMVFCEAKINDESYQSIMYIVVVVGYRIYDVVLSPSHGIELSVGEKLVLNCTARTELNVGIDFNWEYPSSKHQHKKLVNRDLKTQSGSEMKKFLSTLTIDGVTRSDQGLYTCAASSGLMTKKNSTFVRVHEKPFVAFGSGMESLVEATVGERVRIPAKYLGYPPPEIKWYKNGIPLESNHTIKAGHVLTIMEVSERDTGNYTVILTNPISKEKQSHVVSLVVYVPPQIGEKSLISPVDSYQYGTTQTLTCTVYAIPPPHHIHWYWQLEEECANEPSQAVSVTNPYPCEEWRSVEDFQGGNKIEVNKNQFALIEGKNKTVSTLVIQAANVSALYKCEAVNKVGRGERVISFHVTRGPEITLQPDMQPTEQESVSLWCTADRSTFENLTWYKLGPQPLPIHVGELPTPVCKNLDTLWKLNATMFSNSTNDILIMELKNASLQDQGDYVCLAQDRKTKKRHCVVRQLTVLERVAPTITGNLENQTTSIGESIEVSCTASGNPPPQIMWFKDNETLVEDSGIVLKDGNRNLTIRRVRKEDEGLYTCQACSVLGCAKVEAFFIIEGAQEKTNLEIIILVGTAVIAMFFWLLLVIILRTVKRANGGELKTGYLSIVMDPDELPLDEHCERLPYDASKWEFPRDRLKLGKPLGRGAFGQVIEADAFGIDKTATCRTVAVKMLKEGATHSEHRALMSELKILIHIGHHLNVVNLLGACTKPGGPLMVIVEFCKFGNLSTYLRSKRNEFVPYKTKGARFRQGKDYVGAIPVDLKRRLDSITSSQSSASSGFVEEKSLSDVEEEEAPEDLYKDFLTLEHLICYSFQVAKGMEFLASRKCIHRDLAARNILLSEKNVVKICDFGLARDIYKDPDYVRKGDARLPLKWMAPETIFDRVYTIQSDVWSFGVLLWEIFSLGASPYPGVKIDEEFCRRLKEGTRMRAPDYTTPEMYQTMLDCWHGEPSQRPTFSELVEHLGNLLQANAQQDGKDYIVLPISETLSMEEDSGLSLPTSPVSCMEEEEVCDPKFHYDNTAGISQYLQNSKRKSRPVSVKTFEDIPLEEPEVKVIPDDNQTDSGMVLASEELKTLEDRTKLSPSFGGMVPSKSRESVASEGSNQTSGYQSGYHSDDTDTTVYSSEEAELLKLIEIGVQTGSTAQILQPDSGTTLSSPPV
Protocol: as §1, §2, §3, §4, §5, §6, §7, §8

[1] = target: mitogen-activated protein kinase p38α (Homo sapiens, UniProt Q16539); assay: p38α assay, NanoCarrier 2080 format, fluorescence polarization (2D-FIDA anisotropy); assay type: biochemical
mitogen-activated protein kinase p38α, sequence (Q16539 whole entry, species assumed): as the sequence (Q16539 whole entry, species assumed) above
Protocol: as §1, §2
The mitogen-activated protein kinase p38α assays were done in a proprietary microassay NanoCarrier™ 2080 format. In these assays phosphorylation was detected by a phospho-substrate specific monoclonal antibody in an indirect competition assay. The degree of binding of the antibody to the phospho-substrate was measured by fluorescence polarization using 2D-FIDA anisotrophy. In these experiments the final concentration of the enzyme was 1.6 nM and the substrate was 2 μM.
as §6, §7, §8

MAPKAPK1b = MAPKAPK1b (Homo sapiens, UniProt P51812); conditions: inhibitor concentration 1 μM; cited from earlier work
PKCα = PKCα (Homo sapiens, UniProt P17252); conditions: inhibitor concentration 1 μM; cited from earlier work
GSK3β = GSK3β (Homo sapiens, UniProt P49841); conditions: inhibitor concentration 1 μM; cited from earlier work
[2] = compounds marked !: tested at 2.5 micromolar

S6K1, sequence (P23443 whole entry, species assumed): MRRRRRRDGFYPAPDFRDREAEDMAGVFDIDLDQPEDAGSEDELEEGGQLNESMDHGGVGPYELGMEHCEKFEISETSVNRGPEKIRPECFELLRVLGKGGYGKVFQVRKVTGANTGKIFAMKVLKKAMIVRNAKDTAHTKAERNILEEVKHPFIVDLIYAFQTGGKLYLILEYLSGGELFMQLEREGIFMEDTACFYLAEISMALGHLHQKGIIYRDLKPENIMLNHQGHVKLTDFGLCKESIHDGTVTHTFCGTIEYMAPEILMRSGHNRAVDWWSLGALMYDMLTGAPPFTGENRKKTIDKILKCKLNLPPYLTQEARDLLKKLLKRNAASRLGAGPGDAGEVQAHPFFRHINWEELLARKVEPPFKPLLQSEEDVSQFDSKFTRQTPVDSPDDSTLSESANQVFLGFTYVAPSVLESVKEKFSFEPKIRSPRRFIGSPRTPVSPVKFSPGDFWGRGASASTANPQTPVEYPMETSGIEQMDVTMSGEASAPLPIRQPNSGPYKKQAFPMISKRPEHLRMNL

Row | Compound | EGF-R (EGF-R) | ABL (ABL) | CDK2 (CDK2/CycA) | PDGFalpha (PDGF-Ralpha) | MET (MET) | PKC (PKC-beta1) | c-Kit (KIT; tested at 25 micromolar) | Tie2 (TIE2; tested at 25 micromolar) | VEGF (VEGF-R2; tested at 25 micromolar) | also measured
1 | O=S(=O)(c1cccc2cnccc12)N1CCCNCC1 [HA1077] |  |  |  |  |  |  |  |  |  | residual activity S6K1 (S6K1; inhibitor concentration 20 μM): 32%; residual activity MSK1 (MSK-1; inhibitor concentration 20 μM): 19%; residual activity PRK2 (PRK2): 15%
2 | CC(C)(C)n1nc(-c2ccc(Cl)cc2)c2c(N)ncnc21 [PP2] |  |  |  |  |  |  |  |  |  | residual activity SAPK2a (SAPK2a): 21%; residual activity MKK1 (MKK1): 55%; residual activity CDK2 (CDK2): 3%; residual activity CK1 (CK1): 6%
3 | Cc1cccc(CSc2nc3cc(C(N)=O)ccc3n2C[C@H]2O[C@@H](n3cnc4c(N)ncnc43)[C@H](O)[C@@H]2O)c1 [compound 100] | 69 | 109 | 70 | 106 | 88 | 80 | 52 | 42 | 58 | 
4 | CCCCCCCCSc1nc2cc(C(N)=O)ccc2n1C[C@H]1O[C@@H](n2nnc(C(N)=O)c2-c2ccccc2)[C@H](O)[C@@H]1O [compound 146] | 94 | 115 | 270 | 127 | 78 | 142 | 53 | 71 | 101 | 
5 | Nc1ncnc2c1ncn2[C@@H]1O[C@H](CN2C(=O)C(Cc3ccccc3)N(Cc3ccccc3[N+](=O)[O-])C2=O)[C@@H](O)[C@H]1O (some centres unmarked) [compound 212] | 23 | 41 | 25 | 38 | 46 | 26 | 12 | 1 | 10 | 
6 | Nc1ncnc2c1ncn2[C@@H]1O[C@H](CN2C(=O)C(Cc3ccccc3)N(Cc3cccn3S(=O)(=O)c3ccccc3)C2=O)[C@@H](O)[C@H]1O (some centres unmarked) [compound 223] | 22 | 24 | 40 | 17 | 31 | 10 | 109 | 0 | 11 | 
7 | CCn1c2ccccc2c2ccc(CN3C(=O)N(C[C@H]4O[C@@H](n5nnc(C(N)=O)c5-c5ccccc5)[C@H](O)[C@@H]4O)C(=O)C3Cc3ccccc3)cc21 (some centres unmarked) [compound 246] | 15 | 30 | 26 | 28 | 27 | 13 | 6 | −1 | 8 | 
8 | CCCCCCCCOc1ccc(-c2nc3cc(C(N)=O)ccc3n2C[C@H]2O[C@@H](n3nnc(C(N)=O)c3-c3ccccc3)[C@H](O)[C@@H]2O)cc1 [compound 279] | 66 | 6 | 20 | 85 | 72 | 80 | 17 | 12 | 31 | 
9 | CCCc1c(C(N)=O)nnn1[C@@H]1O[C@H](CNCc2nc3cc(C(N)=O)ccc3n2-c2ccc(-c3ccccc3)cc2)[C@@H](O)[C@H]1O [compound 345] | 58 | 74 | 67 | 82 | 87 | 65 | 40 | 41 | 54 | 
10 | CCCc1c(C(N)=O)nnn1[C@@H]1O[C@H](Cn2c(-c3ccc(F)c(C(F)(F)F)c3)nc3cc(C(N)=O)ccc32)[C@@H](O)[C@H]1O [compound 456] | 96 | 107 | 28 | 113 | 103 | 104 | 92 | 91 | 96 | 
11 | Nc1ncnc2c1ncn2[C@@H]1O[C@H](CN2C(=O)C(Cc3ccccc3)N(Cc3ccccc3Sc3ccc(Cl)cc3)C2=O)[C@@H](O)[C@H]1O (some centres unmarked) [compound 604] | 27 | 49 | 30 | 46 | 46 | 50 | 13 | 3 | 18 | P38 ([1]; tested at 25 micromolar): 100
12 | Nc1ncnc2c1ncn2[C@@H]1O[C@H](CN2C(=O)C(Cc3ccccc3)N(Cc3cccs3)C2=O)[C@@H](O)[C@H]1O (some centres unmarked) [compound 605] | 20 | 55 | 26 | 56 | 54 | 27 | 18 | 5 | 14 | P38 ([1]; tested at 25 micromolar): 100
13 | NC(=O)c1nnn([C@@H]2O[C@H](Cn3c(-c4ccc(OCc5ccccc5)cc4)nc4cc(Cl)c(Cl)cc43)[C@@H](O)[C@H]2O)c1-c1ccccc1 [compound 668] |  |  |  |  |  |  |  |  |  | c-Kit (KIT; [2]): 16; Tie2 (TIE2; [2]): 1
14 | NC(=O)c1nnn([C@@H]2O[C@H](Cn3c(-c4ccc(OCc5ccccc5)cc4)nc4cc(Cl)c(Cl)cc43)[C@@H](O)[C@H]2O)c1-c1ccc(Cl)cc1 [compound 669] |  |  |  |  |  |  |  |  |  | P38 [1, 2]: 97; c-Kit (KIT; [2]): 11; Tie2 (TIE2; [2]): 1; VEGF (VEGF-R2; [2]): 34
15 | COc1ccc(-c2c(C(N)=O)nnn2[C@@H]2O[C@H](Cn3c(-c4ccc(OCc5ccccc5)cc4)nc4cc(Cl)c(Cl)cc43)[C@@H](O)[C@H]2O)cc1 [compound 670] |  |  |  |  |  |  |  |  |  | c-Kit (KIT; [2]): 9; Tie2 (TIE2; [2]): 1; VEGF (VEGF-R2; [2]): 23
16 | CCCCCCCCOc1ccc(-c2nc3c(NC)ncnc3n2C[C@H]2O[C@@H](n3nnc(C(N)=O)c3-c3ccccc3)[C@H](O)[C@@H]2O)cc1 [compound 725] |  |  |  |  |  |  |  |  |  | c-Kit (KIT; [2]): 6; Tie2 (TIE2; [2]): 10
17 | Nc1ncnc2c1ncn2[C@@H]1O[C@H](Cn2c(-c3ccc(OCc4ccccc4)cc3)nc3ccccc32)[C@@H](O)[C@H]1O [compound 912] | 88 | 96 | 119 | 96 | 88 | 96 | 38 | 72 | 44 | P38 ([1]; tested at 25 micromolar): 70
18 | Ro-31-8220 |  |  |  |  |  |  |  |  |  | residual activity MAPKAPK1b (MAPKAPK1b): 2%; residual activity PKCα (PKCα): 3%; residual activity GSK3β (GSK3β): 5%; residual activity S6K1 (S6K1; inhibitor concentration 1 μM): 6%; residual activity MSK1 (MSK-1; inhibitor concentration 1 μM): 2%
